Experimental data: patent US20080235828A1 (University of Manitoba, priority 2004, published 2008)

Legend:
[1] = system: FCA-RRM; assay: Preliminary ABA-binding assays using crude lysate from FCA-RRM; design: species or system Arabidopsis
Protocol: All binding assays were carried out at a final volume of 200 μL at 4° C. for 45 minutes. The mixture was then rapidly filtered through a nitrocellulose membrane, washed with 0.5× binding buffer, air dried and counted in a scintillation counter (Wallac 1414 WinSpectral v1.40). Heat denatured FCA protein was used to used determine the protein nature of the FCA and BSA was used as a control. […] […] Specific binding was calculated by taking the difference for assays with only ^3H^+-ABA (total binding) and assays that also contained 5 μM (±)-ABA added at the same time as ^3H^+-ABA (non-specific binding). Binding was represented as the number of moles of ^3H^+-ABA per mole of FCA protein.

[2] = target: T1, FCA-WF protein (Arabidopsis thaliana, UniProt O04425, W619F); assay: ABA binding assay with FCA-WF (mutated WW domain); settings: mutation in the second W of WW domain
T1 sequence (O04425 1-747 W619F): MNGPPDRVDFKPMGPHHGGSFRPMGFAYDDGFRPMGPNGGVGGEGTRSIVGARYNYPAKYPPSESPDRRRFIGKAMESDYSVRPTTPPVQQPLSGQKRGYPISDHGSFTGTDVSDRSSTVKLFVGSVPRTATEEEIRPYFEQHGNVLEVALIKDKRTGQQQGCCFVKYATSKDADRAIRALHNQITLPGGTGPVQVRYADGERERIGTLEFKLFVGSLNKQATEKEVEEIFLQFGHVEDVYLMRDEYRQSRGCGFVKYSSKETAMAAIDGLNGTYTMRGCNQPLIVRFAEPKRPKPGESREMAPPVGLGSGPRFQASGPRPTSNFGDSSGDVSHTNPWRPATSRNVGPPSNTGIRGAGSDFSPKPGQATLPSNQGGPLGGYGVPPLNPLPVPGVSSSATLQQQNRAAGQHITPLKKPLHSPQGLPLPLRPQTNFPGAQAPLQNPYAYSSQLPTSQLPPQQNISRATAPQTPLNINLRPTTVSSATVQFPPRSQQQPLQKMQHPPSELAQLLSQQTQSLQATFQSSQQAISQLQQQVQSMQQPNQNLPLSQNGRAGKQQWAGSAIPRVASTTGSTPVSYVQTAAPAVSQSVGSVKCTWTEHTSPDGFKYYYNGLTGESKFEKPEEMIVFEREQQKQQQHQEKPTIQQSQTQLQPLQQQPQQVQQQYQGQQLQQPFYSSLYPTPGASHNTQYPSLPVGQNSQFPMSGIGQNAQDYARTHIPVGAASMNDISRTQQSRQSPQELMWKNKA
Protocol: (§1) The GST:FCA-WW-FY interaction mixture was incubated for 90 minutes before 1 μM ^3H^+-ABA was added and the mixture pelletted, washed, and the dual activity for [^35S]-met-FY and ^3H^+-ABA were counted as described above.
Similarly, FCA-WF protein was used and binding assays were carried out as above. […] The FCA ^3H^+-ABA binding activity in the absence of FY reached approximately 50% saturation at 15 minutes and approximately 95% saturation at 45 minutes. Each data point represents triplicate assays and error bars represent standard deviation.

[3] = system: FCA/FY interaction; assay: GST pull-down of FCA/FY interaction in the presence of ABA; type: binding, Arabidopsis
Protocol: All in vitro translation and GST pull-down assays were carried out as described by supplier's protocols (Promega, Madison, Wis.) with modifications^S and as follows. For GST in vitro pull-down assays, 15 μL GST affinity resin was incubated with 250 μL FCA clear lysate, pelleted and the complex blocked and washed with IP buffer as described^S. For the determination of the amount of FCA bound to GST resin, the pellet was resuspended with 200 μL of 15 mM GSH to elute FCA and the supernatant was recovered by centrifugation. FY protein to be tested for interaction with the GST-FCA fusion protein was synthesized from a plasmid template and labeled with [^35S]-methionine using the T7 TNT coupled Transcription/Translation System (Promega). Twenty μL of FY labeled protein and 180 μL of interaction buffer (12.5 mM Tris-HCl, pH 7.3 containing 5 mM KCl, 1 mM MgCl2, and 100 mM NaCl) were used to resuspend the GST:FCA after the final wash. The protein binding/interaction reaction was carried out for 90 minutes at 4° C. with continuous gentle mixing. The newly formed complex was then washed three times with 500 μL of IP wash buffer. After the final wash, the complex was resuspended, first with 10 μL of 1 5 mM GSH to facilitate the dissociation of interacted proteins from GST resin and then 10 μL of 2×SDS-PAGE sample buffer was added to the mixture and boiled for 5 minutes for complete elution of the proteins from the agarose beads. The beads were pelleted by centrifugation and supernatant was loaded on a 12% SDS-PAGE gel. The gel was dried and exposed to Kodak X-ray film for 18 hours at −70° C. and film was developed for the detection of labelled proteins.
FCA was bound with […] for 30 minutes at which time the FCA/FY translated product was added to the incubation mixture. The interaction between FCA/FY was carried out in the presence of either (−)- or (+)-ABA in binding buffer as described above. Released proteins were separated on SDS-PAGE and labelled proteins were detected as described above. FCA-WW-FY was used as a control.

[4] = system: GST:FCA-WW-FY; assay: ABA binding to and dissociation of pre-formed FCA-FY complex; design: species or system Arabidopsis
GST:FCA-WW-FY, sequence (O04425 591-747 limits assumed): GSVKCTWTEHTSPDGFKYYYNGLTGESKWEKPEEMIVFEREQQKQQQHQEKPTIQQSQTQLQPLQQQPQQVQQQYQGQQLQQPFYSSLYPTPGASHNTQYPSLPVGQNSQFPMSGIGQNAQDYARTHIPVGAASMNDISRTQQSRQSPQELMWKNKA
Protocol: as §1

abscisic acid [ABA]
3H+-ABA binding [1]: did not show any
3H+-ABA binding ratio relative to non-mutated FCA-WW protein [2]: virtually a similar ratio
inhibition of FCA/FY interaction ([3]; FCA pre-bound with ABA for 30 min): significantly inhibited
FCA/FY interaction remaining ([3]; at 1 μM ABA): virtually no significant interaction
disruption of FCA-FY complex (displacement of FY) [4]: capable of disrupting the FCA-FY complex
ABA binding activity of pre-formed FCA-FY complex ([4]; 1 μM 3H+-ABA added after 90 min FCA-FY incubation): initially low but significantly increased after 45 minutes
